Our source for the CD44high/CD24low population and IC50 values is US20240115537A1, “COMPOSITION FOR PREVENTING OR TREATING BREAST CANCER COMPRISING COMPOUND DERIVED FROM DENDROPANAX MORBIFERUS” (JEJU NATIONAL UNIVERSITY INDUSTRY-ACADEMIC COOPERATION …, priority 2022, published 2024).

SMILES strings stand for the structures.

Assay [1] deals with CD44high/CD24low population of MDA-MB-231 cells. Description: CD44+/CD24- flow cytometry. The class given is cell-based, human. Conditions: 50 μM, 24 hours, control 80.8%. On the procedure: MDA-MB-231 cancer cells (1.5×10^6 cells) were cultured in a 6-well plate for 24 hours and treated with DMSO as a control group or dihydroconiferyl ferulate (50 μM) for 24 hours. Thereafter, the cells isolated into single cells were incubated with an anti-human CD44 antibody (FITC-conjugated) and an anti-human CD24 antibody (PE-conjugated) (BD) at 4° C. for 45 minutes. After washing with 1×PBS, CD44^+/CD24^− cells were examined using a flow cytometer Accuri C6 machine (BD San Jose, CA, USA).
CD44^+/CD24^−, a representative marker of breast cancer stem cells, was associated with stem cell-like activity in breast cancer, and since CD44^+/CD24^− MDA-MB-231 cells show higher tumorigenesis and metastasis than CD44−/CD24^+ MDA-MB-231 cells, MDA-MB-231 cells were treated with dihydroconiferyl ferulate, and then changes in the CD44^high/CD24^low population were measured, and the experimental method was described in Experimental Example 5.

For assay [2], the system named is MCF-7 cells. As to the kind of experiment: Cell proliferation / viability assay (EZ-Cytox). The class given is cell-based. Conditions: Homo sapiens, MCF7, A of FIG. 6, read-out: IC50 (drug concentration required for 50% growth reduction in a survival curve). On the procedure: Human breast cancer cell lines, MDA-MB-231 and MCF-7 cells, were purchased from the Korea Cell Line Bank and cultured in an incubator with an atmospheric environment of 5% CO2 and a Dulbecco's Modified Eagle's Medium (DMEM) containing 10% fetal bovine serum (Corning, Glendale, AZ, USA) and 1% penicillin/streptomycin.
MCF-7 cells (1.5×10^6 cells/plate) and MDA-MB-231 cells (1.0×10^6 cells/plate) were seeded into a 96-well plate for 24 hours and incubated with dihydroconiferyl ferulate (0, 10, 25, 50, 75, 100, 150, and 200 μM). Thereafter, cell viability was examined using the EZ-Cytox Plus Kit (DoGenBio, Seoul, Korea) according to the manufacturer's protocol. OD450 values were measured using a VERSAmax ELISA reader (Molecular Device, San Jose, CA, USA).
Breast cancer cells MCF-7 and MDA-MB-231 were treated with dihydroconiferyl ferulate, a compound purified from the leaves of Dendropanax morbiferus H.Lev at various concentrations to test an antiproliferative effect, and an experimental method was described in Experimental Example 3.

Molecule `COc1cc(/C=C/C(=O)OCCCc2ccc(O)c(OC)c2)ccc1O` [dihydroconiferyl ferulate] had a CD44high/CD24low population in assay [1] of 34.0%. The IC50 in assay [2] was found to be 112 µM.
